Experimental findings from patent US11077115B2, “Rorgamma modulators and uses thereof” (Genfit, priority 2017, dated 2021) are described below.

The term melting point denotes the temperature, or range, at which the solid turns liquid. One may read the IC50 as the midpoint of a concentration-inhibition curve.

Structures are written as SMILES. Where a name gives a salt, the structure may show the parent alone.

Test system in the first data set: not given
Test: not given
Conditions: not given
As for `Cc1ccc(C(NC(=O)C2(c3ccc(N4CCS(=O)(=O)CC4)c(Br)c3)CC2)c2ccc(C)o2)c(N2CCCCC2)c1` (stereo not drawn) (as salt: HCl) [Cpd. 37, 1-[3-bromo-4-(1,1-dioxo-1-thiomorpholin-4-yl)phenyl]-N-{[4-methyl-2-(piperidin-1-yl)phenyl](5-methylfuran-2-yl)methyl}cyclopropane-1-carboxamide], the melting point came out at 106 °C.

`Cc1ccc(C(NC(=O)Cc2cnc(N3CCOCC3)nc2)c2ccc(C)o2)c(N2CCCCC2)c1` (stereo not drawn) (as salt: HCl) [Cpd. 26, N-{[4-methyl-2-(piperidin-1-yl)phenyl](5-methylfuran-2-yl)methyl}-2-[2-(morpholin-4-yl)pyrimidin-5-yl]acetamide] gave a melting point of 69 °C.

Take `Cc1ccc(C(NC(=O)Cc2ccc(N3CCS(=O)(=O)CC3)cc2C)c2ccc(C)o2)c(Br)c1` (stereo not drawn) (as salt: HCl) [Cpd. 21, N-[(2-bromo-4-methylphenyl)(5-methylfuran-2-yl)methyl]-2-[4-(1,1-dioxo-1-thiomorpholin-4-yl)-2-methylphenyl]acetamide]: the melting point amounted to 173 °C.

For `Cc1ccc(C(NC(=O)C2(c3cnc(N4CCS(=O)(=O)CC4)nc3)CC2)c2ccc(C)o2)c(Cl)c1` (stereo not drawn) (as salt: HCl) [Cpd. 52, N-[(2-chloro-4-methylphenyl)(5-methylfuran-2-yl)methyl]-1-[2-(1,1-dioxo-1-thiomorpholin-4-yl)pyrimidin-5-yl]cyclopropane-1-carboxamide], the melting point was 98 °C.

Consider `Cc1ccc(C(NC(=O)C2(c3cc(N4CCS(=O)(=O)CC4)ccc3C)CC2)c2ccc(C)o2)c(C)c1` (stereo not drawn) (as salt: HCl) [Cpd. 70, N-[(2,4-dimethylphenyl)(5-methylfuran-2-yl)methyl]-1-[5-(1,1-dioxo-1-thiomorpholin-4-yl)-2-methylphenyl]cyclopropane-1-carboxamide], for which the melting point was found to be 86 °C.

`Cc1ccc(C(NC(=O)Cc2ccc(O)c(N3CCS(=O)(=O)CC3)c2)c2ccc(C)o2)c(C)c1` (stereo not drawn) (as salt: HCl) [Cpd. 43, N-[(2,4-dimethylphenyl)(5-methylfuran-2-yl)methyl]-2-[3-(1,1-dioxo-1-thiomorpholin-4-yl)-4-hydroxyphenyl]acetamide] came in with a melting point of 146 °C.

Molecule `COc1ccc(C(NC(=O)C2(c3ccc(N4CCS(=O)(=O)CC4)cc3)CC2)c2ccc(C)o2)c(N2CCCCCC2)c1` (stereo not drawn) (as salt: HCl) [Cpd. 46, N-{[2-(azepan-1-yl)-4-methoxyphenyl](5-methylfuran-2-yl)methyl}-1-[4-(1,1-dioxo-1-thiomorpholin-4-yl)phenyl]cyclopropane-1-carboxamide] returned a melting point of 90 °C.

Molecule `COc1ccc(C(NC(=O)C2(c3cnc(N4CCS(=O)(=O)CC4)nc3)CC2)c2ccc(C)o2)c(C)c1` (stereo not drawn) (as salt: HCl) [Cpd. 57, 1-[2-(1,1-dioxo-1-thiomorpholin-4-yl)pyrimidin-5-yl]-N-[(4-methoxy-2-methylphenyl)(5-methylfuran-2-yl)methyl]cyclopropane-1-carboxamide] showed a melting point of 101 °C.

`Cc1ccc(C(NC(=O)Cc2cnc(N3CCS(=O)(=O)CC3)nc2C)c2ccc(C)o2)c(C)c1` (stereo not drawn) (as salt: HCl) [Cpd. 42, N-[(2,4-dimethylphenyl)(5-methylfuran-2-yl)methyl]-2-[2-(1,1-dioxo-1-thiomorpholin-4-yl)-4-methylpyrimidin-5-yl]acetamide]: the melting point was found to be 211 °C.

In the case of `O=C(Cc1ccc(N2CCS(=O)(=O)CC2)cc1)NC(c1ccccc1)c1ccccc1N1CCCCC1` (stereo not drawn) (as salt: HCl) [Cpd. 1, 2-[4-(1,1-dioxo-1-thiomorpholin-4-yl)phenyl]-N-{phenyl[2-(piperidin-1-yl)phenyl]methyl}acetamide], the melting point was 202 °C.

Consider `Cc1ccc(C(NC(=O)Cc2ccc(N3CCS(=O)(=O)CC3)cc2C)c2ccc(C)o2)c(N2CCCCC2)c1` (stereo not drawn) (as salt: HCl) [Cpd. 18, 2-[4-(1,1-dioxo-1-thiomorpholin-4-yl)-2-methylphenyl]-N-{[4-methyl-2-(piperidin-1-yl)phenyl](5-methylfuran-2-yl)methyl}acetamide], for which the melting point worked out at 96 °C.

As to `Cc1ccc(C(NC(=O)Cc2ccc(N3CCS(=O)(=O)CC3)c(C)c2)c2ccc(C)o2)c(Br)c1` (stereo not drawn) (as salt: HCl) [Cpd. 11, N-[(2-bromo-4-methylphenyl)(5-methylfuran-2-yl)methyl]-2-[4-(1,1-dioxo-1-thiomorpholin-4-yl)-3-methylphenyl]acetamide], the melting point was determined as 110 °C.

Molecule `COc1ccc(C(NC(=O)Cc2ccc(N3CCS(=O)(=O)CC3)c(C)c2)c2ccc(C)o2)c(N2CCC(C(F)(F)F)CC2)c1` (stereo not drawn) (as salt: HCl) [Cpd. 14, 2-[4-(1,1-dioxo-1-thiomorpholin-4-yl)-3-methylphenyl]-N-({4-methoxy-2-[4-(trifluoromethyl)piperidin-1-yl]phenyl}(5-methylfuran-2-yl)methyl)acetamide] yielded a melting point of 106 °C.

As to `Cc1ccc(C(NC(=O)C2(c3ccc(N4CCS(=O)(=O)CC4)cc3)CCC2)c2ccc(C)o2)c(N2CCCCC2)c1` (stereo not drawn) (as salt: HCl) [Cpd. 55, 1-[4-(1,1-dioxo-1-thiomorpholin-4-yl)phenyl]-N-{[4-methyl-2-(piperidin-1-yl)phenyl](5-methylfuran-2-yl)methyl}cyclobutane-1-carboxamide], the melting point stood at 87 °C.

Consider `Cc1ccc(C(NC(=O)Cc2cnc(N3CCS(=O)(=O)CC3)nc2)c2ccc(C)o2)c(Cl)c1` (stereo not drawn) (as salt: HCl) [Cpd. 51, N-[(2-chloro-4-methylphenyl)(5-methylfuran-2-yl)methyl]-2-[2-(1,1-dioxo-1-thiomorpholin-4-yl)pyrimidin-5-yl]acetamide], for which the melting point amounted to 208 °C.

The next data set addresses T1, human RORγt (Homo sapiens, UniProt P51449).
T1 sequence (P51449 1-497 isoform P51449-2): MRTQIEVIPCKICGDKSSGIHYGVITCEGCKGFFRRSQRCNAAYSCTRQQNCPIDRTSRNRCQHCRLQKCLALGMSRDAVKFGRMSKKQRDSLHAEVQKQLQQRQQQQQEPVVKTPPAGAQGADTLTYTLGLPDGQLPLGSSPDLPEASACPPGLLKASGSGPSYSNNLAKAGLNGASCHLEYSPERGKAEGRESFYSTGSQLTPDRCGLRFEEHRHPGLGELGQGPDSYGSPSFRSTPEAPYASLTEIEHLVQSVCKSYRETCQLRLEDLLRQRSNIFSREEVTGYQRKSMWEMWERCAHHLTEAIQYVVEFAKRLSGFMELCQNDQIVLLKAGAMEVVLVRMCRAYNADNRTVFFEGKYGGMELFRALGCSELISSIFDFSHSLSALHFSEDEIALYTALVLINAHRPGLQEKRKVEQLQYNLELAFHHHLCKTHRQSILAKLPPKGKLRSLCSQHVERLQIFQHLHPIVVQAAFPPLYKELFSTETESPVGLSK
In words: RORE Luciferase/RORγt transactivation assay (IL-17 promoter luciferase reporter in COS-7 cells). The class given is cell-based. More on the design: V5-His (named only through the vector pcDNA3.1D/V5-His-TOPO); expressed in transfected cells; host or cells: COS-7 (monkey kidney). The settings on record: RORγt activity inhibition, luciferase activity in transfected COS-7 cells, 20 h. The method, then: It is well known that RORγ binds to a conserved non-coding sequence (CNS) enhancer element in the IL-17 promoter.
Culture medium was changed every 2 days.
The 4.3 Kb human IL-17 promoter containing the RORγ-specific CNS enhancer element was PCR amplified from human genomic DNA and cloned into a pGL3-TKLuc2Cp reporter plasmid.
The luciferase reporter plasmid and the RORγt overexpression plasmid were transfected into COS-7 cell line using 4 μL JetPEI™/μg of DNA. Briefly, 150 ng of DNA (ration 1/2 between RORE-Tk Luc2Cp and cDNA RORγt or the empty vector for the negative control) was served to transfect adherent COS-7 cells in a […] culture flask, in complete medium (see cos-7 cell line culture).
Cells were then detached (using trypsin) and washed by centrifugation at 300 g for 10 minutes. Cell pellet was resuspended in serum free/phenol red free DMEM and seeded in 384 well plates at a density of 10000 cells/well and then incubated for 4 h at 37° C.
Compounds were dissolved in 100% DMSO to obtain 10 mM stock solutions. For each compound, test concentrations were diluted in serum free/phenol red free DMEM using the Genesis Freedom 200™ (TECAN) and added to the cells to obtain a 0.3% DMSO final concentration (in a final volume of 40 μL per well).
The luciferase activity was then measured with 40 μL/well steady-Glo Luciferase assay system (Promega, Madison, Wis.) and after incubation at room temperature for 30 minutes. The luminescence was estimated using the Ultra384 reader (TECAN). Data were collected and analyzed using GraphPad Prism software (GraphPad Software V5.02, San Diego Calif. USA). IC50 in μM and E max in % were reported for each compound.
On the technique in general: In a reporter assay the amount or activity of a reporter protein is the signal.
As for `Cc1ccc(C(NC(=O)C2(c3ccc(N4CCS(=O)(=O)CC4)cn3)CC2)c2ccc(C)o2)c(C)c1` (stereo not drawn) [Cpd. 73, N-[(2,4-dimethylphenyl)(5-methylfuran-2-yl)methyl]-1-[5-(1,1-dioxo-1-thiomorpholin-4-yl)pyridin-2-yl]cyclopropane-1-carboxamide], the IC50 was in the range of 100 to 1000 nM.

`COCc1ccc(CC(=O)NC(c2ccc(C)o2)c2ccc(C)cc2N2CCCCC2)cc1N1CCS(=O)(=O)CC1` (stereo not drawn) [Cpd. 62, 2-[3-(1,1-dioxo-1-thiomorpholin-4-yl)-4-(methoxymethyl)phenyl]-N-{[4-methyl-2-(piperidin-1-yl)phenyl](5-methylfuran-2-yl)methyl}acetamide]: the half-inhibitory concentration (IC50) is 100 to 1000 nM.

The molecule `Cc1ccc(C(NC(=O)Cc2ccc(CO)c(N3CCS(=O)(=O)CC3)c2)c2ccc(C)o2)c(N2CCCCC2)c1` (stereo not drawn) [Cpd. 63, 2-[3-(1,1-dioxo-1-thiomorpholin-4-yl)-4-(hydroxymethyl)phenyl]-N-{[4-methyl-2-(piperidin-1-yl)phenyl](5-methylfuran-2-yl)methyl}acetamide] registered a half-inhibitory concentration (IC50) of 100 to 1000 nM.

Consider `Cc1ccc(C(NC(=O)Cc2cnc(N3CCS(=O)(=O)CC3)nc2)c2ccc(Cl)cc2Cl)o1` (stereo not drawn) [Cpd. 50, N-[(2,4-dichlorophenyl)(5-methylfuran-2-yl)methyl]-2-[2-(1,1-dioxo-1-thiomorpholin-4-yl)pyrimidin-5-yl]acetamide], for which the IC50 is 1000 to 10000 nM.

Molecule `Cc1ccc(C(NC(=O)Cc2cnc(N3CCS(=O)(=O)CC3)nc2)c2ccc(C)o2)c(C(F)(F)F)c1` (stereo not drawn) [Cpd. 33, 2-[2-(1,1-dioxo-1-thiomorpholin-4-yl)pyrimidin-5-yl]-N-{[4-methyl-2-(trifluoromethyl)phenyl](5-methylfuran-2-yl)methyl}acetamide] returned an IC50 of 1000 to 10000 nM.

In the case of `Cc1ccc(C(NC(=O)Cc2ccc(N3CCS(=O)(=O)CC3)c(O)c2)c2ccc(C)o2)c(N2CCCCC2)c1` (stereo not drawn) [Cpd. 61, 2-[4-(1,1-dioxo-1-thiomorpholin-4-yl)-3-hydroxyphenyl]-N-{[4-methyl-2-(piperidin-1-yl)phenyl](5-methylfuran-2-yl)methyl}acetamide], the IC50 was less than 100 nM.
